Measured values taken from patent US6896893B2, “Needle-less parenteral introduction device” (Societe de Conseils de Recherches et d'Applications …, priority 1994, dated 2005).

Legend:
[1] = type: physicochemical
Experimental: (§1) A test was conducted with Insulin Human Recombinant (IHR) and Insulin Bovine Pancreas (IBP). […] IHR and IBP represent about 26 Insulin Units (IU) per mg.
(§2) A synthetic anti-PAF, 4,7,8,10-tetrahydro-1-methyl-6-(2-chlorphenyl)-9-(4-methoxyphenylthiocarbamoyl)-pyrido-[4′,3′-4,5] thieno [3,2-f]-1,2,4-triazolo [4,5-a] 1,4-diazepine, and a natural anti-PAF, ginkgolide B, were compared to conventional administration. The synthetic anti-PAF cannot conventionally be used parenterally because of its insolubility.

PAF = assay: anti-PAF pharmacological effect, solid form vs conventional administration; type: in vivo
Text: as §2

[2] = pharmacokinetic profiles of injected tablets vs conventional solutions; type: in vivo; settings: tablets with gelatin and PVP 5-10%
Experimental: A formulation of a somatostatin analogue, D-Nal-cyclo [Cys-Tyr-D-Trp-Lys-Val-Cys]-Thr-NH2 was made into injectable tablets by associating the dry material with gelatin and polyvinylpyrrolidone (PVP, 5-10%). The tablets were injected and compared to conventional solutions in terms of pharmacokinetic profiles.

[3] = insulin unit content per mg
Experimental: as §1

## CC1C(=O)OC2C(O)C34C5CC(C(C)(C)C)C36C(OC(=O)C6O)OC4(C(=O)O5)C12O (centres unmarked) [ginkgolide B]
[1]
  water solubility: slightly soluble
PAF; same dose, solution pH 8.75
  effect after initial injection, solid vs solution: the effect was the same after initial injection
PAF; solid dry formulation, same dose
  duration of effect: 24 h
PAF; solution form (pH 8.75), same dose
  duration of effect: 2 h

## COc1ccc(NC(=S)N2CCc3c(sc4c3C(c3ccccc3Cl)=NCc3nnc(C)n3-4)C2)cc1 [synthetic anti-PAF, 4,7,8,10-tetrahydro-1-methyl-6-(2-chlorphenyl)-9-(4-methoxyphenylthiocarbamoyl)-pyrido-[4′,3′-4,5] thieno [3,2-f]-1,2,4-triazolo [4,5-a] 1,4-diazepine]
[1]
  water solubility: insolubility
PAF; solid form
  correlation between pharmacological effect and blood concentration: very good correlation

## D-Nal-cyclo [Cys-Tyr-D-Trp-Lys-Val-Cys]-Thr-NH2
[2]
  pharmacokinetic profile / pharmacological results, injected tablets vs conventional solutions: substantially the same pharmacological results

## Insulin Bovine Pancreas [IBP]
[1]
  water solubility: water insoluble
[3]
  Insulin Units (IU) per mg: about 26 IU per mg

## Insulin Human Recombinant [IHR]
[1]
  water solubility: water soluble
[3]
  Insulin Units (IU) per mg: about 26 IU per mg
